Test results taken from PMC8111572 (Inorganic chemistry, 2020).
Like-named read-outs stand apart in the source and are kept apart here. Marks after values point to notes of the source that are not given here. One block for each compound: values may come before it.

Assays:
[1] = cited from earlier work
[2] = pLa value; assay type: binding; settings: −log [M]free when [M]total = 10^−6 M and [L]total = 10^−5 M at pH = 7.4; calculated (Table S1)
[3] = pLu value; assay type: binding; settings: −log [M]free when [M]total = 10^−6 M and [L]total = 10^−5 M at pH = 7.4; calculated (Table S1)
[4] = Ligand protonation constants by potentiometric titration; assay type: physicochemical; settings: protonation constant, 25.0 °C, 0.1 M KCl
[5] = −log [M]free when [M]total = 10^−6 M and [L]total = 10^−5 M at pH = 7.4; cited from earlier work
[6] = −log [M]free when [M]total = 10^−6 M and [L]total = 10^−5 M at pH = 7.4; cited from earlier work; remark: listed apart in the source
[7] = cited from earlier work; remark: listed apart in the source
[8] = protonation constant, cited from earlier work

SMILES: O=C([O-])CN(CCN(CC(=O)[O-])CC(=O)O)CCN(CC(=O)[O-])CC(=O)O.[Gd+3] [Gd-DTPA]
- kex298 (water exchange rate constant) [1]: 3.3e+06 s⁻¹

- log K1 [4]: 8.47(4)
- log K2 [4]: 7.63(2)
- log K3 [4]: 3.66(4)
- log K4 [4]: 2.90(1)
- log K5 [4]: 1.77(12)
SMILES: O=C(O)CN(CCOCCN(CC(=O)O)Cc1cccc(C(=O)O)n1)Cc1cccc(C(=O)O)n1 [Oxyaapa, 6,6’-(((oxybis(ethane-2,1-diyl))bis((carboxymethyl)azanediyl))bis(methylene))dipicolinic acid]
- pLa [2]: 18.5
- pLu [3]: 21.1

SMILES: O=C(O)CN(Cc1cccc(CN(CC(=O)O)Cc2cccc(C(=O)O)n2)n1)Cc1cccc(C(=O)O)n1 [Pypa]
- pLu [5]: 22.6
- pLa [6]: 19.9

SMILES: O=C([O-])CN1CCN(CC(=O)[O-])CCN(CC(=O)[O-])CCN(CC(=O)[O-])CC1.[Gd+3] [Gd-DOTA]
- kex298 (water exchange rate constant) [1]: 4.1e+06 s⁻¹

SMILES: O=C(O)c1ccccn1 [pyridinium-2-carboxylic acid]
- pKa [7]: 5.39

SMILES: O=C(O)CN(CCN(CC(=O)O)Cc1cccc(C(=O)O)n1)Cc1cccc(C(=O)O)n1 [Octapa]
- log K1 ([8]; 0.15 M NaCl): 8.52
- log K2 ([8]; 0.15 M NaCl): 5.40
- log K3 ([8]; 0.15 M NaCl): 3.65
- log K4 ([8]; 0.15 M NaCl): 2.97
- log K5 ([8]; 0.15 M NaCl): 1.66
- log K1 ([8]; 0.16 M NaCl): 8.58
- log K2 ([8]; 0.16 M NaCl): 5.43
- log K3 ([8]; 0.16 M NaCl): 3.75
- log K4 ([8]; 0.16 M NaCl): 3.08
- log K5 ([8]; 0.16 M NaCl): 2.21
- pLu [5]: 19.8
- pLa [6]: 19.7

- log K1 [4]: 8.72(1)
- log K2 [4]: 7.81(2)
- log K3 [4]: 3.09(2)
- log K4 [4]: 2.35(4)
SMILES: CN(CCOCCN(C)Cc1cccc(C(=O)O)n1)Cc1cccc(C(=O)O)n1 [OxyMepa, 6,6’-(((oxybis(ethane-2,1-diyl))bis(methylazanediyl))bis(methylene))dipicolinic acid]

SMILES: Cc1cccc(C)n1 [2,6-dimethylpyridinium cation]
- pKa [7]: 6.7

SMILES: O=C(O)CN(CCOCCN(CC(=O)O)CC(=O)O)CC(=O)O [OBETA]
- log K1 ([8]; 0.1 M KCl): 9.34^e
- log K2 ([8]; 0.1 M KCl): 8.62^e
- log K3 ([8]; 0.1 M KCl): 3.19^e
- log K4 ([8]; 0.1 M KCl): 2.19^e
- log K5 ([8]; 0.1 M KCl): 1.77^e
